Results on six compounds are retold here after PMC12428554, “Anti-HIV and Antimicrobial Activity of 7-Hydrazino-8-hydroxyquinoline-Based Aromatic Hydrazones” (International Journal of Molecular Sciences, 2025).

Values after ≈ are worked out from the molar mass of the structure shown. Values joined by “and” are separate entries in the source; they are usually repeats but may differ in a detail not shown here. Equal values may be shown once.

The subject of one test is C. albicans ATCC 10231. Put plainly: MIC by twofold serial dilution, C. albicans. In kind it is cell-based. To be noted: Candida albicans, ATCC10231; 24 h, 35 °C; read-out: MIC (Mean ± SE) C. albicans ATCC 10231. As for the experimental part: (§1) Candida albicans ATCC 10231, Pseudomonas aeruginosa ATCC 27853, and Staphylococcus aureus ATCC 29213 strains were obtained from the American Type Culture Collection (ATCC; Rockville, MD, USA). The subculture and inoculum preparation were performed according to CLSI M27-A3 for C. albicans on yeast extract peptone dextrose (YPD) agar (HiMedia, Mumbai, Maharashtra, India) and RPMI-1640 medium (PanEco, Moscow, Russia) with MOPS (3-(N-morpholino) propanesulfonic acid, >99.5%; PanEco, Moscow, Russia), and M7-A11 for P. aeruginosa and S. aureus on Mueller-Hinton agar (MHA; HiMedia, Mumbai, Maharashtra, India) and Mueller-Hinton broth (MHB; HiMedia, Mumbai, Maharashtra, India). The stock cell concentrations of fungus and bacteria were 1 × 10^6 and 1 × 10^8 cells/mL, respectively. A working suspension of C. albicans (5.0 × 10^2 cells/mL) was prepared by two-step dilution of the broth concentration with the RPMI-1640 medium. Assay suspensions of P. aeruginosa and S. aureus (1.0 × 10^6 cells/mL) were prepared by diluting the concentration with Mueller-Hinton broth (HiMedia, Mumbai, Maharashtra, India). Amphotericin B (Sigma-Aldrich, Burlington, MA, USA) and gentamicin (Sigma-Aldrich, Burlington, MA, USA) were used as secondary pharmaceutical standards.
(§2) The minimum inhibitory concentration (MIC) was determined by the twofold serial dilution method, according to CLSI M27-A3 [33] and M07-A11 [34], in three independent experiments with four replicates each. Amphotericin B was used as a positive control for fungus; gentamicin was used as a positive control for bacteria. Stock solutions except gentamicin were prepared in DMSO at a concentration of 6400 μg/mL. Gentanicin was solubilized in sterile water at a concentration of 1280 μg/mL. Stock solutions of the tested substances were diluted to the final concentrations in the assay medium and 100 μL of each sample was added to the wells of 96-well plates, and then 100 μL of inoculum was added. Rows 11 and 12 were left for the negative control (medium with inoculum without the drug) and sterility control. The plates were incubated for 24 h at 35 °C in the case of C. albicans and at 37 °C in the case of P. aeruginosa and S. aureus. The tested concentration for gentamicin ranged from 0.0625 to 32 μg/mL; for other compounds, it ranged from 0.125 to 64 μg/mL. The MIC value was determined using spectrophotometer. The MIC was taken to be the lowest drug concentration that caused complete inhibition of microorganism growth compared to the control. The final MIC values were reported as the means with standard error (SE). Standard errors for µg/mL values less than 0.01 were excluded; standard errors for µM values less than 0.1 were excluded (Table 3).

For test [1], the target named is T1, recombinant HIV-1 Integrase (strand transfer) (Human immunodeficiency virus type 1 group M subtype B, UniProt P04585).
T1 construct: The recombinant HIV-1 Integrase (In) was isolated from the Rosetta Escherichia coli producer strain; made in house; host or cells: Escherichia coli Rosetta
Kind of test: HIV integrase strand transfer inhibition. In kind it is biochemical. The following applies: for IC50: 100 nM integrase, 37 °C, 2 h. As for the experimental part:
The recombinant HIV-1 Integrase (In) was isolated from the Rosetta Escherichia coli producer strain and purified without the addition of a detergent as described previously. Radioactive ^32P label was introduced at the 5′-end of the oligonucleotide. Testing of the compounds was performed according to the previously published procedure. Briefly: 5 nM ^32P-labeled 21 mer DNA duplex (5′-[…]-3′ and 5′-[…]-3′) for 3′-processing reaction or 10 nM 19/21 mer DNA duplex (5′-[…]-3′ and 5′-[…]-3′) for strand transfer was incubated in 20 µL of the buffer (20 mM HEPES, pH 7.2, 7.5 mM MgCl2, 1 mM DTT) in the presence of 100 nM integrase and increasing concentrations of the inhibitor at 37 °C for 2 h. The reaction products were assayed by 20% polyacrylamide gel electrophoresis (PAGE) with 7 M urea. The result was visualized by radioautography on a Typhoon FLA 9500 PhosphorImager (GE Healthcare Technologies, Chicago, IL, USA). The counting of radioautograms was performed using QuantityOne 4.6.6 software (Bio-Rad, Hercules, CA, USA). Calculation of IC50 parameters was carried out by Prism 8.0.1 software (GraphPad Software, San-Diego, CA, USA).

In test [2] the test system is HIV-1 (subtype B) in MT-4 cells. Kind of test: Antigen p24 assay in HIV-infected MT-4 cells. In kind it is cell-based. The following applies: Human immunodeficiency virus 1, MT4; HIV-1 899A strain (subtype B), third day after infection. As for the experimental part: The human MT-4 lymphoblastoid cells were cultured in RPMI 1640 medium supplemented with 10% fetal bovine serum (FBS) (HyClone, Logan, UT, USA), 2 mM L-glutamine, 50 U/mL penicillin, and 50 μg/mL streptomycin in a humidified atmosphere of 5% CO2 at 37 °C. The cells were re-seeded at a density of 3.0 × 10^5 cells/mL every three days. The HIV-1_899A strain (subtype B) was used from the collection of human immunodeficiency virus strains of the D.I. Ivanovsky Institute of Virology, N. F. Gamaleya National Research Center of Epidemiology and Microbiology, Ministry of Health, Moscow, Russia. The commercial drug Efavirenz (EFV), a non-nucleoside inhibitor of HIV reverse transcriptase, was used as a positive control. HIV-1 was added to the cells at 0.1 CCID50 (50% cell culture infectious dose). The cells, both infected and non-infected, were then incubated at 37 °C in a humidified atmosphere containing 5% CO2 for a 40 min period, after which the cells were washed twice in serum-free RPMI 1640 and plated into the wells of a 96-well plate. The tested compounds were then added to the cells at concentrations from 0.5 μM to 100 μM. The final ethanol concentration was 1% v/v. On the third day after infection, the culture fluid was collected for determining the amount of p24 antigen by enzyme immunoassay analysis using a commercial test system kit (Genscreen ULTRA HIV Ag-Ab, Bio-Rad, Hercules, CA, USA). Cell viability was measured by MTT assay.

A further test deals with S. aureus ATCC 29213. Kind of test: MIC by twofold serial dilution, S. aureus. In kind it is cell-based. The following applies: Staphylococcus aureus, ATCC29213, 24 h, 37 °C, read-out: MIC (Mean ± SE) S. aureus ATCC 29213. As for the experimental part:
as §1, §2

Regarding `Oc1c(N/N=C/c2ccccc2)ccc2cccnc12` [Compound I, 7-(2-Benzylidenohydrazinyl)-8-hydroxyquinoline], the MIC in the test on C. albicans ATCC 10231 is 4 µg/mL and 15.2 µM; in the test with S. aureus ATCC 29213 it was 52 µg/mL and 198 µM. Also, the “inhibition of strand transfer, in words” value in test [1] is recorded as “weak activity”. Moreover, the values for the IC50 in test [1] and in test [2] were 160 ± 50 µM and 770 ± 30 nM, respectively.
With `O=[N+]([O-])c1ccc(/C=N/Nc2ccc3cccnc3c2O)cc1` [II, 7-(4-Nitrobenzylidenohydrazinyl)-8-hydroxyquinoline], the MIC with C. albicans ATCC 10231 was 13 µM and 4 µg/mL; in the test with S. aureus ATCC 29213, 14 ± 1.9 µg/mL (≈ 45.4 µM). Also, the “inhibition of strand transfer, in words” value in test [1] was “ineffective”. Also, the IC50 in test [1] is above 200 µM; in test [2], 1200 ± 80 nM.
For `O=[N+]([O-])c1cccc(/C=N/Nc2ccc3cccnc3c2O)c1` [III, 7-(3-Nitrobenzylidenohydrazinyl)-8-hydroxyquinoline], the MIC in the test on C. albicans ATCC 10231 is 11.3 µg/mL and 36.8 µM; in the test with S. aureus ATCC 29213, 18 ± 4.8 µg/mL (≈ 58.4 µM). In addition, the “inhibition of strand transfer, in words” value in test [1] was “weak activity”. Also, the IC50 in test [1] is 190 ± 60 µM; in test [2], 1400 ± 330 nM.
Turning to `COc1ccc(/C=N/Nc2ccc3cccnc3c2O)cc1` [IV, 7-(4-Methoxybenzylidenohydrazinyl)-8-hydroxyquinoline], the MIC in the test on C. albicans ATCC 10231 was 8 µg/mL and 27.3 µM; in the test with S. aureus ATCC 29213 it was 64 µg/mL and 218 µM. Besides, in test [1], the “inhibition of strand transfer, in words” value is “weak activity”. Besides, the IC50 was 150 ± 50 µM in test [1] and 670 ± 50 nM in test [2].
With `Oc1c(N/N=C/c2ccc(Br)c(Br)c2)ccc2cccnc12` [V, 7-(3,4-Dibromobenzylidenohydrazinyl)-8-hydroxyquinoline], the MIC is 15.3 µg/mL and 36.3 µM in the test on C. albicans ATCC 10231; 36.3 ± 10.3 µg/mL (≈ 86.2 µM) with S. aureus ATCC 29213. Also, the “inhibition of strand transfer, in words” value in test [1] is reported as “ineffective”. Moreover, the values for the IC50 in test [1] and in test [2] were above 200 µM and below 500 nM, respectively.
In the case of `Oc1c(N/N=C/c2ccc(F)cc2)ccc2cccnc12` [VI, 7-(4-Fluorobenzylidenohydrazinyl)-8-hydroxyquinoline], the MIC in the test on C. albicans ATCC 10231 was 3.8 µg/mL and 13.6 µM; in the test on S. aureus ATCC 29213 it was ≥ 64 µg/mL and ≥ 228 µM. Moreover, the IC50 in test [1] was ~40 µM and 40 µM; in test [2], below 500 nM.
